According to patent US20030186943A1, “Substituted gamma-phenyl-delta-lactams and uses related thereto” (Inflazyme Pharmaceuticals Ltd., priority 1998, published 2003):
Like-named read-outs stand apart in the source and are kept apart here.

Key:
[1] = tested on: primary human neutrophils; assay: fMLP-induced human neutrophil chemotaxis; format: cell-based; details: for IC50: fMLP-induced chemotaxis, X marks this range, read-out: IC50 RANGE (μM) 10-100
Method: Chemotaxis buffer containing the chemoattractant fMLP (10 μM) was added to each well of a chemotaxis plate and a filter was inserted ensuring contact between the filter and the chemotaxis buffer in the well. A submaximal concentration of chemoattractant was used which had been determined in previous experiments. […] Freshly isolated neutrophils (1×10^6) were incubated with vehicle (0.125% DMSO)±test compound for 1 hr at 37° C. Treatment and control cell suspensions were then gently resuspended and 20 μL of cells was added to the top side of the filter on each well. The plate was incubated for 1.5 hours at 37° C. under 5% CO2. Cells were then removed from the top side of the filter by aspiration and the entire plate was centrifuged. The filter was removed and known concentrations of cells were added to unused wells to prepare a standard curve. XTT (Sigma; Catalogue No. X 4251)/PMS (Sigma; Catalogue No. P 7626) solution prepared in buffer was added to each well and the cells were further incubated 1-2 hours and measured for absorbance at 450 nm. Absorbance values were converted to cell numbers using the standard curve. IC50 values are averages from at least three separate experiments with triplicate determinations.

[2] = tested on: cAMP Phosphodiesterase 4 from Human U937 Cells; assay: Inhibition of cAMP phosphodiesterase 4 from human U937 cells; format: biochemical
Method: PDE's 1 through 4 utilize cAMP as substrate while PDE 5 uses cGMP. […] PDE's for the various assays were partially purified from the following cells/tissues; PDE 1 (bovine heart), PDE 2 (human platelets), PDE 3 (human platelets), PDE 4 (human promonocytic U937 cells) and PDE 5 (human platelets).
Sonicated cell extracts were then centrifuged at 70,000 g for 30 minutes and supernatants removed. Sucrose was added to a final concentration of 0.25 M, aliquoted and stored at −80° C.
PDE reactions were performed for 30 minutes at 37° C. in 20 μL volumes in 1 μM [^3H] cAMP (Amersham website http://www.apbiotech.com), 0.5 U/mL 5′ nucleotidase (Sigma), 50 mM Tris Cl, 10 mM MgCl pH 7.5. U937 extract was added such that less than 10% of substrate was consumed. Test compound or vehicle was added to the desired concentration. […] Reactions were performed in duplicate. Reactions were terminated by addition of 200 μL Dowex 1-8400 Cl^− anion exchange resin in a ratio of 1 resin: 2 methanol: 1H2O. Samples were mixed by inversion and then allowed to settle for 2-3 hours.

[3] = target: PDE 1 (bovine heart) (Bos taurus, UniProt P14100); assay: PDE isozyme specificity: PDE 1; format: biochemical
Sequence of PDE 1 (bovine heart) (P14100 35-530): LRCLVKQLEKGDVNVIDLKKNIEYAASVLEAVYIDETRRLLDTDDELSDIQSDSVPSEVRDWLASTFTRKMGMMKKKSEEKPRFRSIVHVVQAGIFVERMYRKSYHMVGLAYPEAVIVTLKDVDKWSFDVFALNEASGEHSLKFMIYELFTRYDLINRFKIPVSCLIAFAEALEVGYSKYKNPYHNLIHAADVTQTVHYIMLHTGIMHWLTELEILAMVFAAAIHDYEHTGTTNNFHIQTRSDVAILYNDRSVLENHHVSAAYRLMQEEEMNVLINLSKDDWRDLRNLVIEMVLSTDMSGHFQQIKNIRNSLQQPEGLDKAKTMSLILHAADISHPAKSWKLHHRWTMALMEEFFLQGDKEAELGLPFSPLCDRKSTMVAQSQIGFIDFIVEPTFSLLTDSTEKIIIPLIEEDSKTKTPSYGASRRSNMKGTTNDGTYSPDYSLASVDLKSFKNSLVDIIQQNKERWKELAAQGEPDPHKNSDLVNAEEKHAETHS
From the text: (§1) Compound 12 was screened for activity against 5 of the major classes of mammalian cyclic nucleotide phosphodiesterase (termed PDE 1 through 5). PDE's 1 through 4 utilize cAMP as substrate while PDE 5 uses cGMP. The broad specificity PDE inhibitor 3-isobutyl-1-methylxanthine (IBMX; Sigma; Catalogue No. 17018)) was used as a positive control in all assays. PDE's for the various assays were partially purified from the following cells/tissues; PDE 1 (bovine heart), PDE 2 (human platelets), PDE 3 (human platelets), PDE 4 (human promonocytic U937 cells) and PDE 5 (human platelets).
(§2) Test compounds (at 100 μM) were screened for activity against PDE 1,2 and 5, using standard biochemical methods performed at MDS Panlabs (Bothell, Wash., USA). The broad specificity PDE inhibitor 3-isobutyl-1-methylxanthine (IBMX) was used as a positive control in all assays. PDE's for the various assays were partially purified from the following cells/tissues; PDE 1 (bovine heart), PDE 2 (human platelets) and PDE 5 (human platelets). For purposes of comparison, the effects on PDE3 (human platelets) and PDE4 (human U937 monocytic cell line) described above are presented again in Table 12.

[4] = target: T1, PDE 2 (human platelets) (Homo sapiens, UniProt O00408); assay: PDE isozyme specificity: PDE 2; format: biochemical; details: for inhibition at 100 µM: PDE2, X marks this range
T1 construct: PDE's for the various assays were partially purified from the following cells/tissues; tissue MDS Panlabs (assay service); host or cells: human platelets
T1 sequence (O00408 whole entry): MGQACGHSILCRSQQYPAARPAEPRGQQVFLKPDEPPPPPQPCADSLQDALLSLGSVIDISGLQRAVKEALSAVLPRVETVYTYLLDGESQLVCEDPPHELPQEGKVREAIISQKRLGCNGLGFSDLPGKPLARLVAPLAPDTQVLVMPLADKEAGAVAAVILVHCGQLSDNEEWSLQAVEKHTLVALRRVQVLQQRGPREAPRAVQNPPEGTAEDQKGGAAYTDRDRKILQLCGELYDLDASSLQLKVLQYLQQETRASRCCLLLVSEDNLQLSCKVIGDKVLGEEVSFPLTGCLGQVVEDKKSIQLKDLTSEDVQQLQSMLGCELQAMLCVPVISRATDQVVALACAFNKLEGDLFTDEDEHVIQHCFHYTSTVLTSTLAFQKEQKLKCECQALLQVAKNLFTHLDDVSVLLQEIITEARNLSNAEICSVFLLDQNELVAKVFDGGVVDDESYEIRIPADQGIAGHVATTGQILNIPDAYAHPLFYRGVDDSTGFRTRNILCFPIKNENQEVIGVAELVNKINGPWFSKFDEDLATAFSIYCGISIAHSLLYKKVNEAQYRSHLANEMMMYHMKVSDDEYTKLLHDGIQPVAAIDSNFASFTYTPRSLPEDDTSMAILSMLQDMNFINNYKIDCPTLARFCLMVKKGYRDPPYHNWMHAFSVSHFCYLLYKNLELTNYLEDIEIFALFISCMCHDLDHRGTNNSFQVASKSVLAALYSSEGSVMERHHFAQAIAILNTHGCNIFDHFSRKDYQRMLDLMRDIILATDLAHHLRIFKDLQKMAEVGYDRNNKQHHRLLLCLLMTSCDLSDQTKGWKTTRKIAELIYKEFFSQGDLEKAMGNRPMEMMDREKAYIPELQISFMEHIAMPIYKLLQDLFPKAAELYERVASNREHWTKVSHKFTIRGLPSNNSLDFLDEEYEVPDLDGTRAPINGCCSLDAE
From the text: as §1, §2

[5] = tested on: tail skin allograft rejection (C57BL/6 donor, BALB/c recipient mice); assay: Murine tail skin allograft transplantation model; format: in vivo, mouse; details: 10 mg/kg i.p. twice daily; for Average graft survival: from one day prior to and for 15 days after transplantation; for # grafts surviving beyond 16 days p.t.: five mice per group
Method: Tail skin from donor H-2 b C57BL/6 mice was transplanted onto recipient female H-2^d BALB/c mice (Lagodzinski, Z. et al., Immunology 71:148-150 (1990)). Five mice were included per group. […] Test compounds and CsA were administered twice daily intraperitoneally at a dose of 10 mg/kg beginning at one day prior to transplantation and for 15 days after transplantation, including the day of transplantation. Mice were monitored and scored daily over 15 days post transplantation for graft rejection.
Skin allograft rejection is primarily mediated by T lymphocytes with little evidence for a major role of antibodies under most circumstances. Skin allograft rejection requires the activation of helper and cytotoxic effector T cell populations. Graft rejection was assessed by monitoring allograft necrosis. Because tail skin is visibly distinct from the surrounding trunk skin of the mouse, the course of rejection can be easily monitored. Fully intact grafts were scored as 100%. Complete graft rejection was defined as >90% graft necrosis. Acute graft rejection generally proceeds via a series of visually obvious events beginning with swelling and erythema of the graft. These events are followed by graft desiccation and scab formation over most or all of the graft, signaling the loss of the viable graft tissue. Scab formation is subsequently followed by shrinkage and scar formation.

[6] = read-out: % inhibition by 100 μM test compound 50-75, PDE1, X marks this range
[7] = read-out: % inhibition by 100 μM test compound 25-50

Row | Structure (SMILES) | IC50 [1] [µM] | inhibition at 100 µM [3, 6] [%] | inhibition at 100 µM [4, 7] [%] | Average graft survival [5] [days] | Allograft survival rate (% at 9 days post-transplant) [5] [%] | # grafts surviving beyond 16 days p.t. [5] | further results
1 | COc1cc(C[C@@H]2CC(c3ccc(OC)c(OC)c3)COC2=O)ccc1O (mixture of isomers) [Compound 12] | 10 to 100 | 50 to 75 | 25 to 50 |  |  |  | IC50 ([2]; human promonocytic U937 cells, read-out: IC50 PDE 4): 5.9 µM; inhibitory effect on PDE 2 ([4]; human platelets): no significant inhibitory effects
2 | COc1cc(C[C@@H]2C[C@@H](c3ccc(OC)c(OC)c3)COC2=O)ccc1O [Compound 30] | 10 to 100 |  |  |  |  |  | IC50 ([2]; PDE4 from U937 extract, 1 μM [3H] cAMP, X marks this range, read-out: IC50 range (μM) 1-10): 1 to 10 µM
3 | COc1ccc([C@@H]2CCC(=O)OC2)cc1OC1CCCC1 [Compound 41] |  |  | 25 to 50 | 11.6 ± 4.6 | 60 | 1 | inhibition at 100 µM ([3]; read-out: % inhibition by 100 μM test compound 1-25, PDE1, X marks this range): 1 to 25%
4 | COc1cc(CC2C[C@@H](c3ccc(OC)c(OC4CCCC4)c3)COC2=O)ccc1O (stereo partly shown) [Compound 43] |  | 50 to 75 |  |  |  |  | IC50 ([2]; read-out: IC50 against the catalytic activity of PDE4): 0.26 µM; inhibition at 100 µM ([4]; read-out: % inhibition by 100 μM test compound 50-75): 50 to 75%
5 | COc1ccc([C@H]2CNC(=O)C(Cc3ccc(OCc4ccccc4)c(OC)c3)C2)cc1OC (stereo partly shown) [Compound 54] |  |  |  | 11.5 ± 3.3 | 75 | 0 | 
6 | COc1ccc(C2CNC(=O)C2)cc1OC1CCCC1 (stereo not shown) [Rolipram, reference compound] |  |  |  | 11.5 ± 3.7 | 50 | 1 | inhibition at 12.5 µM ([1]; at 12.5 μM, positive control): 85%
